Measured values as given in US11839607B2, “Memantine paroxetine cocrystal salt and its preparation method, pharmaceutical composition and application” (priority 2018, dated 2023).
Read-outs that look alike come from different tables or passages of the source.

Assay: Pharmacokinetic experiment of memantine paroxetine cocrystal salt in rats (plasma memantine by LC-MS/MS)
Format: in vivo, SD rat
Settings: gavage
Description: Determination of the pharmacokinetic parameters of […] and paroxetine in rat plasma by LC-MS/MS method
The memantine paroxetine cocrystal salt prepared in embodiment 1; memantine hydrochloride; dexamethasone (Intermediate inspection office); ammonium formate; methanol is all chromatographic pure (Merck Company); formic acid is all chromatographic pure (Aladdin Company); acetonitrile is all chromatographic pure (Merck Company); experimental water is deionized purified water.
SD rat, SPF grade, male, weight 200-250 g, purchased from Zhejiang Experimental Animal Center, production license No.: SCXK (Zhejiang) 2014-0001.
Liquid mass spectrometer: Thermo Finnigan TSQ Quantum, composed of Surveyor As, Surveyor MS Pump Plus and TSQ Quantum, Thermo Fisher Scientific Company; Sartorius BP-211D electronic balance; Thermo STRATOS high speed freezing centrifuge; Eppendorf PCB-11 micro vortex mixer; Milli-Q Grandient pure water meter.
Chromatographic column: Waters Cortecs C18 (2.1 mm×50 mm, 2.7 μm); column temperature: 35° C.; mobile phase: acetonitrile-[…] ammonium formate containing 0.1% formic acid (10:90); flow rate: 0.2 mL·min^−1; sample injection volume: 5 μL.
Ion detection method: multiple reaction monitoring (MRM); ionic polarity: positive ion (Positive); ionization mode: electrospray ionization (ESI); ionization voltage (IS): 3000.0V; temperature: 300° C.; sheath gas: 35; auxiliary gas: 30.
10 rats are randomly divided into 2 groups, 5 rats in each group: group A: 5.6 mg/kg memantine hydrochloride; group B: 17.4 mg/kg cocrystal salt;
The rats are fasted for 12 h before the experiment, and the tested drugs re given by gavage with the volume of 1 mL/100 g. Before and 5, 10, 20, 40, 60, 120, 180, 240, 360 and 480 min after administration, 0.5 mL of blood is collected through the fundus vein plexus. Anticoagulate the heparin. Centrifugate at 4000 rpm for 10 min, and separate the plasma. It can be used for the determination of memantine concentration.

[1] = male SD rats, same molar dose: group A 5.6 mg/kg memantine hydrochloride, group B 17.4 mg/kg cocrystal salt, average value

Compound | AUC(0-inf) (Sprague-Dawley (SD), rat, po, male SD rats, same molar dose: group A 5.6 mg/kg memantine hydrochloride, group B 17.4 mg/kg cocrystal salt, average value) | AUC(0-t) (Sprague-Dawley (SD), rat, po, male SD rats, same molar dose: group A 5.6 mg/kg memantine hydrochloride, group B 17.4 mg/kg cocrystal salt, average value, read-out: AUC(0-t)) | Cmax (Sprague-Dawley (SD), rat, po, male SD rats, same molar dose: group A 5.6 mg/kg memantine hydrochloride, group B 17.4 mg/kg cocrystal salt, average value, read-out: Cmax) | MRT last (Sprague-Dawley (SD), rat, po, male SD rats, same molar dose: group A 5.6 mg/kg memantine hydrochloride, group B 17.4 mg/kg cocrystal salt, average value, read-out: MRT(0-t)) | MRT inf (Sprague-Dawley (SD), rat, po, male SD rats, same molar dose: group A 5.6 mg/kg memantine hydrochloride, group B 17.4 mg/kg cocrystal salt, average value, read-out: MRT(0-∞)) | Tmax (Sprague-Dawley (SD), rat, po, male SD rats, same molar dose: group A 5.6 mg/kg memantine hydrochloride, group B 17.4 mg/kg cocrystal salt, average value, read-out: Tmax) | CLz/F [1] | T1/2z [1] | AUC(0-t) [1] | AUC(0-∞) [1] | Cmax [1] | MRT(0-t) [1] | MRT(0-∞) [1] | Tmax [1] | AUC(0-∞) ratio, cocrystal salt versus memantine hydrochloride (same molar dose, rats) | Cmax ratio, cocrystal salt versus memantine hydrochloride (same molar dose, rats) | T1/2 ratio, cocrystal salt versus memantine hydrochloride (same molar dose, rats) | Tmax ratio, cocrystal salt versus memantine hydrochloride (same molar dose, rats)
CC12CC3CC(C)(C1)CC(N)(C3)C2.Cl [memantine hydrochloride, 3,5-Dimethyl-1-aminoadamantane hydrochloride, reference compound] | 0.773 ng·h/mL | 0.714 ng·h/mL | 0.276 ng/mL | 2.43 h | 3.05 h | 0.617 h | 123437.1 mL/min/kg | 2.009 h | – | – | – | – | – | – | – | – | – | –
CC12CC3CC(C)(C1)CC(N)(C3)C2.Fc1ccc([C@@H]2CCNC[C@H]2COc2ccc3c(c2)OCO3)cc1.O.O.O.O=S(=O)(O)O [cocrystal salt, C19H20FNO3·C12H21N·H2SO4·3H2O] | – | – | – | – | – | – | 94414.6 mL/min/kg | 5.605 h | 1.982124 ng·h/mL | 3.16723 ng·h/mL | 0.449186 ng/mL | 3.298 h | 8.1 h | 0.868 h | 4.10 times | 1.62 times | 2.79 times | 1.41 times
